Like-named read-outs stand apart in the source and are kept apart here.
Biological target: T1, K-RasG12C (1-169) (Homo sapiens, UniProt P01116, G12C)
T1 construct: Un-tagged recombinant K-Ras G12C (1-169) at 4 μM in Buffer A; hexahistidine (cleaved yes); made in house; host or cells: Escherichia coli BL21 (DE)
Test: Mass spectrometric screen for extent of covalent labeling
Type: binding
Conditions: for percent covalent labeling at 10 µM: 10 micromolar; for Labeling % (10 micM) 24h: 10 micM compound, (plate) or (single) measurement
Experimental: Un-tagged recombinant K-Ras G12C (1-169) at 4 μM in Buffer A was reacted with inhibitors at 200 μM or 10 μM (2% DMSO final). At 2, 6, and 24 hrs, 10 μL aliquots were removed and the reactions were stopped by addition of 1 μL 2% formic acid. The extent of modification was determined by mass spectrometry.

[1] = 2 h, 2 hrs, read-out: Percent reduction in activity of compound at 10 micromolar relative to control (no compound), 2 hrs
[2] = 6 h, 6 hrs, read-out: Percent reduction in activity of compound at 10 micromolar relative to control (no compound), 6 hrs
[3] = 24 h, 24 hrs, read-out: Percent reduction in activity of compound at 10 micromolar relative to control (no compound), 24 hrs

SMILES	percent covalent labeling at 10 µM [1]	percent covalent labeling at 10 µM [2]	percent covalent labeling at 10 µM [3]	Labeling % (10 micM) 24h	Labeling % (10 micM) 24h (Table 5)
C=CS(=O)(=O)NC1CCN(C(=O)CNc2cc(Cl)c(Cl)cc2OC)CC1 [Ras-054]	≤ 5%	20 to 40%	> 60%	–	–
C=CS(=O)(=O)NC1CCN(C(=O)CNc2cc(Cl)c(Cl)cc2O)CC1 [Ras-055]	5 to 20%	20 to 40%	> 60%	+++++ (plate) (60% < +++++)	+++++ (plate) (60% < +++++)
C=CS(=O)(=O)NC1CCN(C(=O)COc2cc(-c3cn[nH]c3)c(Cl)cc2Cl)CC1 [Ras-056]	≤ 5%	≤ 5%	≤ 5%	–	–
C=CS(=O)(=O)NC1CCN(C(=O)C(C)Oc2cc(CN)c(Cl)cc2Cl)CC1 (stereo not shown) [Ras-058]	≤ 5%	≤ 5%	≤ 5%	–	–
C=CS(=O)(=O)NC1CCN(C(=O)CNc2cc(Cl)c(Cl)cc2CC)CC1 [Ras-059]	≤ 5%	5 to 20%	> 60%	+++++ (single) (60% < +++++)	+++++ (single) (60% < +++++)
C=CS(=O)(=O)NC1CCN(c2cc(-c3cc(Cl)c(Cl)cc3I)ccn2)CC1 [Ras-060]	≤ 5%	≤ 5%	≤ 5%	–	–
C=CS(=O)(=O)NC1CCN(C(=O)COc2cc(NS(C)(=O)=O)c(Cl)cc2Cl)CC1 [Ras-061]	≤ 5%	≤ 5%	≤ 5%	–	–
C=CC(=O)N1CCN(C(=O)CNc2cc(Cl)c(Cl)cc2OC)CC1 [Ras-062]	≤ 5%	≤ 5%	20 to 40%	+++ (single) (20%< +++ <=40%)	+++ (single) (20%< +++ <=40%)
C=CS(=O)(=O)NC1CCN(C(=O)COc2cc(Cl)c(Cl)cc2O)CC1 [Ras-063]	≤ 5%	5 to 20%	20 to 40%	–	–
C=CS(=O)(=O)NC1CCN(C(=O)CNc2cc(OC)c(Cl)cc2OC)CC1 [Ras-064]	≤ 5%	≤ 5%	20 to 40%	–	–
C=CS(=O)(=O)NC1CCN(C(=O)CNc2cc(C(F)(F)F)c(Cl)cc2OC)CC1 [Ras-065]	≤ 5%	5 to 20%	20 to 40%	–	–
C=CC(=O)N1CCN(C(=O)CNc2cc(C(F)(F)F)c(Cl)cc2OC)CC1 [Ras-066]	≤ 5%	≤ 5%	5 to 20%	–	–
C=CS(=O)(=O)NC1CCN(C(=O)COc2ccc(Cl)cc2C(F)(F)F)CC1 [Ras-067]	≤ 5%	≤ 5%	5 to 20%	–	–
C=CS(=O)(=O)NC1CCN(CC(=O)Nc2cc(Cl)c(Cl)cc2I)CC1 [Ras-068]	≤ 5%	≤ 5%	≤ 5%	–	–
C#CCOc1cc(OCC(=O)N2CCC(NS(=O)(=O)C=C)CC2)c(Cl)cc1Cl [Ras-069]	≤ 5%	5 to 20%	> 60%	–	+++ (single) (20%< +++ <=40%)
C=CS(=O)(=O)NC1CCN(C(=O)COc2cc(CCO)c(Cl)cc2Cl)CC1 [Ras-070]	≤ 5%	≤ 5%	20 to 40%	–	–
C#Cc1cc(OCC(=O)N2CCC(NS(=O)(=O)C=C)CC2)c(Cl)cc1Cl [Ras-071]	≤ 5%	≤ 5%	40 to 60%	–	–
C=CS(=O)(=O)N1CCC(Nc2cc(-c3cc(Cl)c(Cl)cc3I)ccn2)CC1 [Ras-072]	≤ 5%	≤ 5%	≤ 5%	–	–
C=CC(=O)N1CCN(C(=O)CNc2cc(Cl)c(Cl)cc2O)CC1 [Ras-073]	–	20 to 40%	> 60%	–	–
C=CS(=O)(=O)NC1CCN(C(=O)COc2cc(C(C)(C)O)c(Cl)cc2Cl)CC1 [Ras-074]	–	–	40 to 60%	–	–
C=CS(=O)(=O)NC1CCN(C(=O)CNc2cc(OC)c(Cl)cc2I)CC1 [Ras-077]	–	5 to 20%	> 60%	–	–
C=CS(=O)(=O)NC1CCN(C(=O)CNc2cc(I)c(Cl)cc2OC)CC1 [Ras-079]	20 to 40%	> 60%	> 60%	–	+++++ (single) (60% < +++++)

SMILES	percent covalent labeling at 10 µM [1]	percent covalent labeling at 10 µM [2]	percent covalent labeling at 10 µM [3]	Labeling % (10 micM) 24h	Labeling % (10 micM) 24h (Table 5)
C=CC(=O)N1CCN(C(=O)CNc2cc(I)c(Cl)cc2OC)CC1 [Ras-080]	–	–	20 to 40%	–	–
C=CS(=O)(=O)NC1CCN(C(=O)CNc2cc(-c3ccccc3)c(Cl)cc2OC)CC1 [Ras-082]	–	20 to 40%	> 60%	–	–
C=CS(=O)(=O)NC1CCN(C(=O)CNc2cc(I)c(Cl)cc2O)CC1 [Ras-084]	20 to 40%	> 60%	> 60%	–	–
C=CS(=O)(=O)NC1CCN(C(=O)CNc2cc(CC)c(Cl)cc2OC)CC1 [Ras-085]	5 to 20%	20 to 40%	> 60%	–	–
C=CS(=O)(=O)NC1CCN(C(=O)CNc2cc(-c3ccccc3)c(Cl)cc2I)CC1 [Ras-086]	–	–	40 to 60%	–	–
C=CS(=O)(=O)NC1CCN(C(=O)COc2c(Cl)cc(Cl)c3cccnc23)CC1 [UP-I-154A]	≤ 5%	≤ 5%	≤ 5%	–	–
C=CS(=O)(=O)NC1CCN(C(=O)CSc2cn(CC)c3ccccc23)CC1 [UP-I-154B]	≤ 5%	≤ 5%	≤ 5%	–	–
C=CS(=O)(=O)NC1CCN(C(=O)COc2ncnc3sc(C)cc23)CC1 [UP-I-154K]	≤ 5%	≤ 5%	≤ 5%	–	–
C=CS(=O)(=O)NC1CCN(C(=O)CSc2nc3cc(C)ccc3[nH]2)CC1 [UP-I-160B]	≤ 5%	≤ 5%	≤ 5%	–	–
C=CS(=O)(=O)NC1CCN(C(=O)COc2c(Cl)cc(Cl)cc2NC(=O)OC(C)(C)C)CC1 [UP-I-162B]	≤ 5%	≤ 5%	≤ 5%	–	–
C=CS(=O)(=O)NC1CCN(C(=O)CSc2nnc(C)s2)CC1 [UP-I-164A]	≤ 5%	≤ 5%	≤ 5%	–	–
C=CS(=O)(=O)NC1CCN(C(=O)CSc2nnc(C)o2)CC1 [UP-I-164B]	≤ 5%	≤ 5%	≤ 5%	–	–
C=CS(=O)(=O)NC1CCN(C(=O)CSc2n[nH]c(C)n2)CC1 [UP-I-164C]	≤ 5%	≤ 5%	≤ 5%	–	–
C=CS(=O)(=O)NC1CCN(C(=O)COc2c(Cl)cc(Cl)cc2-c2ccno2)CC1 [UP-I-165B]	≤ 5%	≤ 5%	≤ 5%	–	–
C=CS(=O)(=O)NC1CCN(C(=O)COc2ccc3nncn3n2)CC1 [UP-I-165C]	≤ 5%	≤ 5%	≤ 5%	–	–
C=CS(=O)(=O)NC1CCN(C(=O)CSc2nc(C)cs2)CC1 [UP-I-165D]	≤ 5%	≤ 5%	≤ 5%	–	–
C=CS(=O)(=O)NC1CCN(C(=O)COc2c(Cl)cc(Cl)c3c2OC(C)(C)O3)CC1 [UP-I-177C]	≤ 5%	5 to 20%	40 to 60%	++++ (plate) (40% < ++++ <=60%)	++++ (plate) (40% < ++++ <=60%)
C=CS(=O)(=O)NC1CCN(C(=O)COc2c(Br)cc(Br)c3c2OC(C)(C)O3)CC1 [UP-I-177D]	≤ 5%	≤ 5%	> 60%	–	–
C=CS(=O)(=O)NC1CCN(C(=O)CNc2c(Cl)cc(Cl)c3nsnc23)CC1 [UP-I-185a]	5 to 20%	20 to 40%	> 60%	+++++ (single) (60% < +++++)	+++++ (single) (60% < +++++)
C=CS(=O)(=O)NC1CCN(C(=O)COc2c(N)cc(Cl)cc2Cl)CC1 [UP-I-185b]	≤ 5%	≤ 5%	5 to 20%	–	–
C=CS(=O)(=O)NC1CCN(C(=O)CNc2c(Cl)cc(Cl)c3nonc23)CC1 [UP-I-187]	≤ 5%	≤ 5%	20 to 40%	–	+++ (single) (20%< +++ <=40%)

From patent US11008334B2, “Compositions and methods for treating cancer” (The Regents of the University of California, priority 2012, dated 2021)
